Source: patent US10583111B2, “Method for preventing or treating diseases associated with the inhibition of EGFR” (priority 2017, dated 2020)

Key:
skin cells HaCaT = test: Proliferative toxicity of EGFR inhibitor on skin cells HaCaT and ameliorating effect of nitric oxide releasing agents (CCK-8); assay type: cell-based; settings: 48 hrs
Method: The cultured skin cell HaCaT were digested, counted, and seeded in a 96-well plate with 5000-10000 cells per well. After the cells were attached, the supernatant was discarded. The wells were divided to the blank control group, the EGFR inhibitor group, the EGFR inhibitor+nitric oxide releasing agent group and the blank solvent control group. The EGFR inhibitor group: 100 μL of the EGFR inhibitor solution was added (the final concentration was shown in Table 2; Cetuximab was in an aqueous solution, besides which each of other EGFR inhibitors were in a solution containing DMSO); the EGFR inhibitor+nitric oxide releasing agent group: the EGFR inhibitor solution and the nitric oxide releasing agent solution were added (the final concentration of the EGFR inhibitor and nitric oxide releasing agent were shown in Table 2, and depending on the solubility of the nitric oxide releasing agent, the nitric oxide releasing agent solution was an ethanol solution or an aqueous solution); the blank control group: except the normal replacement of the medium, no additional solution was added; a plurality of blank solvent control groups: an equal volume of the same type of solvent as the corresponding EGFR inhibitor group or the EGFR inhibitor+nitric oxide releasing agent was added. […] After additional culture for 48 hrs, the survival rate of cells was measured by Cell Counting Kit-8 (CCK-8) assay kit (C0037, purchased from Shanghai Beyotime Biotechnology Inc.) to calculate the proliferative toxicity of the EGFR inhibitor to cells and the ameliorating effect of the nitric oxide releasing agent to the proliferative toxicity.

[1] = system: intracellular NO level in HUVEC; test: Effect of the EGFR inhibitor on the intracellular NO levels, HUVEC; assay type: cell-based, human; settings: 20 μM, 12-24 hrs, cell lysate
Method: (§1) The cultured HaCaT, HUVEC and hMSC were respectively digested, counted, and seeded into 6-well plates with 100,000-600,000 cells per well. After the cells were attached, the supernatant was discarded, and 1.5 mL of the EGFR inhibitor solution diluted to the final concentration as shown in Table 7 was added into the wells of the 6-well plates, wherein no additional solution was added to the blank control group, except the normal replacement of basic medium. After 12-24 hrs of addition of the EGFR inhibitor, the supernatant was discarded, while 100 μL of a cell lysis solution was added to the cells in the 6-well plates (specifically for the detection of nitric oxide, 53090, Beyotime Inc.). After 30 s of lysis, 50 μL cell lysis solution was taken. The NO level in the cell lysis solution was detected by using NO assay kit (S0021, Beyotime Inc.). GraphPad Prism 6.0 Software and t-test were used to carry out a statistic analysis of the results and plot a graph.

[2] = system: intracellular NO level in hMSC; test: Effect of the EGFR inhibitor on the intracellular NO levels, hMSC; assay type: cell-based; settings: hMSCs; 20 μM; 12-24 hrs; cell lysate
Method: as §1

[3] = system: intracellular NO level in HaCaT; test: Effect of the EGFR inhibitor on the intracellular NO levels, HaCaT; assay type: cell-based; settings: 20 μM, 12-24 hrs, cell lysate
Method: as §1

[4] = system: human foreskin fibroblasts (HFF); test: Proliferative toxicity of EGFR inhibitor on HFF and ameliorating effect of nitric oxide releasing agent (CCK-8); assay type: cell-based; settings: one merged result for Erlotinib 10 μM, Afatinib 5 μM, Osimertinib 20 μM, agent 200 μM, 48 hrs
Method: The cultured human foreskin fibroblasts (HFF) were digested, counted, and seeded to a 96-well plate with 5000-10000 cells per well. After the cells were attached, the supernatant was discarded. The wells were divided to the blank control group, the EGFR inhibitor group, the EGFR inhibitor+nitric oxide releasing agent group and blank solvent control group. EGFR inhibitor group: 100 μL of the EGFR inhibitor solution was added (the final concentration was listed in Table 6, the EGFR inhibitor solutionare DMSO solution); the EGFR inhibitor+nitric oxide releasing agent group: the EGFR inhibitor solution and the nitric oxide releasing agent solution were added (the final concentrations of the EGFR inhibitor and the nitric oxide releasing agent were listed in Table 6, and depending on the solubility of the nitric oxide releasing agents, the nitric oxide releasing agent solution was ethanol solution or aqueous solution); the blank control group: except the normal replacement of medium, no additional solution was added; a plurality of blank solvent control group: an equal volume of the same type of solvent as the corresponding EGFR inhibitor group or the EGFR inhibitor+nitric oxide releasing agent group was added. […] After additional 48 hrs of culture, the survival rate of cells was determined by Cell Counting Kit-8 (CCK-8) assay kit (C0037, Shanghai Beyotime Biotechnology Inc., Beyotime Biotechnology), to calculate the proliferative toxicity of the EGFR inhibitor to cells and the ameliorating effect of the nitric oxide releasing agent to the proliferative toxicity. GraphPad Prism 6.0 Software and t-test were used to carry out a statistic analysis of the results and plot a graph.

[5] = system: Human Oral Keratinocytes (HOK); test: Proliferative toxicity of EGFR inhibitor on Human Oral Keratinocytes (HOK) and ameliorating effect of nitric oxide releasing agent (CCK-8); assay type: cell-based; settings: one merged result for Erlotinib 10 μM, Afatinib 5 μM, Osimertinib 20 μM, agent 200 μM, 48 hrs
Method: The cultured Human Oral Keratinocytes (HOK) were digested, counted, and seeded to a 96-well plate with 5000-10000 cells per well. After the cells were attached, the supernatant was discarded. The wells were divided to the blank control group, the EGFR inhibitor group, the EGFR inhibitor+nitric oxide releasing agent group and blank solvent control group. EGFR inhibitor group: 100 μL of the EGFR inhibitor solution was added (the final concentration was listed in Table 4, all the EGFR inhibitor solution that are DMSO solution); the EGFR inhibitor+nitric oxide releasing agent group: the EGFR inhibitor solution and the nitric oxide releasing agent solution were added (the final concentrations of the EGFR inhibitor and the nitric oxide releasing agent were listed in Table 4, and depending on the solubility of the nitric oxide releasing agents, the nitric oxide releasing agent solution was ethanol solution or aqueous solution); the blank control group: except the normal replacement of medium, no additional solution was added; a plurality of blank solvent control group: an equal volume of the same type of solvent as the corresponding EGFR inhibitor group or the EGFR inhibitor+nitric oxide releasing agent group was added. […] After additional 48 hrs of culture, the survival rate of cells was determined by Cell Counting Kit-8 (CCK-8) assay kit (C0037, Shanghai Beyotime Biotechnology Inc., Beyotime Biotechnology), to calculate the proliferative toxicity of the EGFR inhibitor to cells and the ameliorating effect of the nitric oxide releasing agent to the proliferative toxicity. GraphPad Prism 6.0 Software and t-test were used to carry out a statistic analysis of the results and plot a graph.

[6] = system: small intestine epithelial cells FHs 74 Int; test: Proliferative toxicity of EGFR inhibitor to small intestine epithelial cell FHs 74 Int and ameliorating effect of nitric oxide releasing agent (CCK-8); assay type: cell-based; settings: one merged result for Erlotinib 10 μM, Afatinib 5 μM, Osimertinib 20 μM, agent 200 μM, 48 hrs
Method: The cultured small intestine epithelial cells FHs 74 Int were digested, counted, and seeded to a 96-well plate with 5000-10000 cells per well. After the cells were attached, the supernatant was discarded. The wells were divided to the blank control group, the EGFR inhibitor group, the EGFR inhibitor+nitric oxide releasing agent group and blank solvent control group.
EGFR inhibitor group: 100 μL of the EGFR inhibitor solution was added (the final concentration was listed in Table 3, all the EGFR inhibitor solution are DMSO solution); the EGFR inhibitor+nitric oxide releasing agent group: the EGFR inhibitor solution and the nitric oxide releasing agent solution were added (the final concentrations of the EGFR inhibitor and the nitric oxide releasing agent were listed in Table 3, and depending on the solubility of the nitric oxide releasing agents, the nitric oxide releasing agent solution was ethanol solution or aqueous solution); the blank control group: except the normal replacement of medium, no additional solution was added; a plurality of blank solvent control group: an equal volume of the same type of solvent as the corresponding EGFR inhibitor group or the EGFR inhibitor+nitric oxide releasing agent group was added. […] After additional 48 hrs of culture, the survival rate of cells was determined by Cell Counting Kit-8 (CCK-8) assay kit (C0037, Shanghai Beyotime Biotechnology Inc., Beyotime Biotechnology), to calculate the proliferative toxicity of the EGFR inhibitor to cells and the ameliorating effect of the nitric oxide releasing agent to the proliferative toxicity. GraphPad Prism 6.0 Software and t-test were used to carry out a statistic analysis of the results and plot a graph.

[7] = system: human umbilical vein endothelial cells (HUVEC); test: Proliferative toxicity of EGFR inhibitor on HUVEC and ameliorating effect of nitric oxide releasing agent (CCK-8); assay type: cell-based; settings: 48 hrs
Method: The cultured human umbilical vein endothelial cells (HUVECs) were digested, counted, and seeded to a 96-well plate with 5000-10000 cells per well. After the cells were attached, the supernatant was discarded. The wells were divided to the blank control group, the EGFR inhibitor group, the EGFR inhibitor+nitric oxide releasing agent group and blank solvent control group.
EGFR inhibitor group: 100 μL of the EGFR inhibitor solution was added (the final concentration was listed in Table 5, the EGFR inhibitor solution are DMSO solution); the EGFR inhibitor+nitric oxide releasing agent group: the EGFR inhibitor solution and the nitric oxide releasing agent solution were added (the final concentrations of the EGFR inhibitor and the nitric oxide releasing agent were listed in Table 5, and depending on the solubility of the nitric oxide releasing agents, the nitric oxide releasing agent solution was ethanol solution or aqueous solution); the blank control group: except the normal replacement of medium, no additional solution was added; a plurality of blank solvent control group: an equal volume of the same type of solvent solution as the corresponding EGFR inhibitor group or the EGFR inhibitor+nitric oxide releasing agent group was added. The blank solvent control group was used for data correction to eliminate the effect of solvent to the result in the EGFR inhibitor group and the EGFR inhibitor+nitric oxide releasing agent group. After additional 48 hrs of culture, the survival rate of cells was determined by Cell Counting Kit-8 (CCK-8) assay kit (C0037, Shanghai Beyotime Biotechnology Inc., Beyotime Biotechnology), to calculate the proliferative toxicity of the EGFR inhibitor to cells and the ameliorating effect of the nitric oxide releasing agent to the proliferative toxicity. GraphPad Prism 6.0 Software and t-test were used to carry out a statistic analysis of the results and plot a graph. […]

[8] = Afatinib 5 μM + nitric oxide releasing agent 200 μM
[9] = Erlotinib 10 μM + nitric oxide releasing agent 200 μM
[10] = Osimertinib 20 μM + nitric oxide releasing agent 200 μM
[11] = Cetuximab 100-200 μg/mL + nitric oxide releasing agent 200 μM

Structure (SMILES) | Cell Survival Rate: percentage of viable cells increased vs EGFR inhibitor group (skin cells HaCaT; [8]) | Cell Survival Rate: percentage of viable cells increased vs EGFR inhibitor group (skin cells HaCaT; [9]) | Cell Survival Rate: percentage of viable cells increased vs EGFR inhibitor group (skin cells HaCaT; [10]) | Cell Survival Rate: percentage of viable cells increased vs EGFR inhibitor group (skin cells HaCaT; [11]) | Cell Survival Rate: percentage of viable cells increased vs EGFR inhibitor group [4] | Cell Survival Rate: percentage of viable cells increased vs EGFR inhibitor group [5] | Cell Survival Rate: percentage of viable cells increased vs EGFR inhibitor group [6] | further results
O=C(NCCO[N+](=O)[O-])c1cccnc1 [Nicorandil, nicorandil] | by 65-75% | by 85-95% | by 30-40% |  |  |  |  | 
NCCN(CCN)[N+]([O-])=NO [NOC-18, 3,3-di (aminoethyl)-1-hydroxyl-2-carbonyl-1-triazene] | by 35-45% | by 75-85% | by 25-35% | by 45-55% |  |  |  | 
C#Cc1cccc(Nc2ncnc3cc(OCCOC)c(OCCOC)cc23)c1 [Erlotinib] |  |  |  |  |  |  |  | NO Level: percentage of NO concentration decreased vs control group [1]: 22%; NO Level: percentage of NO concentration decreased vs control group [2]: 30%; NO Level: percentage of NO concentration decreased vs control group [3]: 28%
CCOC(=O)[N-]c1cn(N2CCOCC2)n[o+]1 [Molsidomine] | by 35-45% | by 75-85% | by 35-45% |  | 20-70% | 20-30% | 15%-35% | 
CC(C)CCON=O [Isoamyl nitrite, isoamyl nitrite] | by 35-45% | by 75-85% | by 35-45% | by 35-45% | 30-80% | 25-35% | 25%-35% | 
O=[N+]([O-])OCC(CO[N+](=O)[O-])O[N+](=O)[O-] [Nitroglycerin, nitroglycerin] | by 85-95% | by 65-75% | by 35-45% | by 35-45% | 30-90% | 20-30% | 15%-35% | Cell Survival Rate: percentage of viable cells increased vs EGFR inhibitor group (skin cells HaCaT; Canertinib 10 μM + nitric oxide releasing agent 200 μM): by 55-65%; Cell Survival Rate: percentage of viable cells increased vs EGFR inhibitor group (skin cells HaCaT; EAI045 20 μM + nitric oxide releasing agent 200 μM): by 65-75%; Cell Survival Rate: percentage of viable cells increased vs EGFR inhibitor group (skin cells HaCaT; Gefitinib 10 μM + nitric oxide releasing agent 200 μM): by 65-75%; Cell Survival Rate: percentage of viable cells increased vs EGFR inhibitor group (skin cells HaCaT; Icotinib 10 μM + nitric oxide releasing agent 200 μM): by 65-75%; Cell Survival Rate: percentage of viable cells increased vs EGFR inhibitor group (skin cells HaCaT; Lapatinib 10 μM + nitric oxide releasing agent 200 μM): by 55-65%; Cell Survival Rate: percentage of viable cells increased vs EGFR inhibitor group (skin cells HaCaT; Nazartinib 10 μM + nitric oxide releasing agent 200 μM): by 55-65%; Cell Survival Rate: percentage of viable cells increased vs EGFR inhibitor group (skin cells HaCaT; Neratinib 10 μM + nitric oxide releasing agent 200 μM): by 65-75%; Cell Survival Rate: percentage of viable cells increased vs EGFR inhibitor group (skin cells HaCaT; Olmutinib 10 μM + nitric oxide releasing agent 200 μM): by 35-45%; Cell Survival Rate: percentage of viable cells increased vs EGFR inhibitor group (skin cells HaCaT; Poziotinib 10 μM + nitric oxide releasing agent 200 μM): by 55-65%; Cell Survival Rate: percentage of viable cells increased vs EGFR inhibitor group (skin cells HaCaT; Rociletinib 10 μM + nitric oxide releasing agent 200 μM): by 65-75%; Cell Survival Rate: percentage of viable cells increased vs EGFR inhibitor group (skin cells HaCaT; Sapitinib 10 μM + nitric oxide releasing agent 200 μM): by 55-65%; Cell Survival Rate: percentage of viable cells increased vs EGFR inhibitor group (skin cells HaCaT; Vandetanib 10 μM + nitric oxide releasing agent 200 μM): by 55-65%; Cell Survival Rate: percentage of viable cells increased vs EGFR inhibitor group (skin cells HaCaT; Varlitinib 10 μM + nitric oxide releasing agent 200 μM): by 35-45%; Cell Survival Rate: percentage of viable cells increased vs EGFR inhibitor group ([7]; Afatinib 5 μM + agent 200 μM): 15-20%; Cell Survival Rate: percentage of viable cells increased vs EGFR inhibitor group ([7]; Erlotinib 10 μM + agent 200 μM): 20-30%; Cell Survival Rate: percentage of viable cells increased vs EGFR inhibitor group ([7]; Osimertinib 20 μM + agent 200 μM): 90-100%
